Columns and labels:
[1] = Treatment of mild myocarditis / tachycardia in subjects; assay type: in vivo, human; settings: for Response of mild myocarditis: four subjects
From the text: Rogers et. al. described an IRIS case which manifested in the form of fulminant myocarditis. […] All four subjects of the instant experiment had no previous heart condition and were started with the HC alone, but were given LDN after the first mortality had occurred.
They were turned down several times to be a participant in the herbal program because they refused to take their spouse for counseling. […] They were diagnosed with borderline cardiomegaly around one year after initially testing HIV positive, and developed tachycardia, but had no subjective complaint and never developed fever. We maintained them on Lanoxin 250 μg, which controlled their heart rate below 100 beats/minute, and also started them on LDN.

HIV = settings: LDN alone on HIV+ subjects; stated by Bihari; cited from earlier work
[2] = cited from earlier work
[3] = Clinical observation of adverse effects; assay type: in vivo, human; settings: 960 mg tablets daily
Experimental: Patients were tested weekly for progress and toxicities. We then determined a dose which can be tolerated by most of the patients, and recruited more subjects. In a preferred embodiment, two HC's (one each, B.I.D), approximately equal to 500 mg of the active ingredients of U.S. Pat. No. 7,556,830 per day, are administered. However, adjustments must be made according to the body weight of the subject, and lesser or higher dosages of as low as 100 mg and as high as 1 g, can be deployed. As a majority of the patients' health improved, we progressively scheduled their appointments further apart, to once every two weeks, and then, on a monthly basis.

NS(=O)(=O)c1cc(C(=O)O)c(NCc2ccco2)cc1Cl [furosemide]
Response of mild myocarditis [1]: responded promptly

O=C1CC[C@@]2(O)[C@H]3Cc4ccc(O)c5c4[C@@]2(CCN3CC2CC2)[C@H]1O5 [Naltrexone, 17-(cyclopropylmethyl)-4,5α-epoxy-3,14-dihydroxymorphinan-6-one]
Effect on CD4 count (HIV): does not increase CD4 count, but only maintains its level or delays its decrease | Bioavailability [2]: 5-40%

cotrimoxazole
Bone marrow suppression [3]: several patients developed bone marrow suppression

C[C@H]1O[C@@H](O[C@H]2[C@@H](O)C[C@H](O[C@H]3[C@@H](O)C[C@H](O[C@H]4CC[C@@]5(C)[C@H](CC[C@@H]6[C@@H]5C[C@@H](O)[C@]5(C)[C@@H](C7=CC(=O)OC7)CC[C@]65O)C4)O[C@@H]3C)O[C@@H]2C)C[C@H](O)[C@@H]1O [digoxin]
Response of mild myocarditis [1]: responded promptly | Heart rate ([1]; patient, tachycardia, 250 μg): below 100 beats/minute

Reference: patent US8404284B2, “Medicinal and herbal composition and uses thereof” (priority 2010, dated 2013)
